The results in this text go back to patent US20240246942A1, “KINASE INHIBITORS FOR THE TREATMENT OF NEURODEGENERATIVE DISEASES” (priority 2020, published 2024).

Broadly, the IC50 is the concentration needed to halve the response being measured.

For data set [1], the system named is JNK3-dependent phosphorylation of APP at T668. Briefly: JNK3 inhibition assay in rat primary neuron cultures (Western blot, anisomycin activated). Format: cell-based. As to conditions: even at a concentration as low as 10 nM; FIGS. 5A-5C. The method, then:
Both hippocampal and cortical neurons were isolated from E18 rat embryos and cultured in NbActive 1 medium that contains B27 (Brainbits, LLC) plus penicillin/streptomycin (Life Technologies). At the 7th day in culture, cells were treated with different concentrations of inhibitors diluted in DMSO and 80 ng/ml Anisomycin for 30 min to activate the endogenous JNK3. At the end of incubation time, whole cell lysates were prepared in RIPA buffer containing 50 mM Tris (pH 8.0), 150 mM NaCl, 2 mM EDTA, 1% NP-40, 0.5% deoxycholate supplemented with 10 mM Na pyrophosphate, 1 mM sodium orthovanadate, 25 mM NaF, 10 μg/ml leupeptin, 10 μg/ml aprotinin, 1 mM β-glycerophosphate, and 2 mM PMSF. The lysates were subjected to Western blotting to detect whether inhibitors block JNK3-dependent phosphorylation of APP at T668 and c-jun at S73. Phospho-APP^T668, phosphor-c-jun^S73, APP, and c-jun antibodies were from Cell Signaling Technology.
For orientation: In western blotting, separated proteins are transferred to a membrane and probed.

The target of another data set is JNK3α1 (Homo sapiens, UniProt P53779). The class given is biochemical. As to conditions: mean of ≥2 experiments; read-out: Biochemical inhibition IC50 JNK3. The method, then:
(§1) A 10-point titration of all compounds was carried out in 3-fold dilutions from 10 μM to 0.5 nM.

The target in the next data set is JNK1 (Homo sapiens, UniProt P45983). The experiment in a line: JNK1 homogeneous time-resolved fluorescence enzyme inhibition assay. As to conditions: mean of ≥2 experiments; read-out: Biochemical inhibition IC50 JNK1. The class given is biochemical. The method, then:
as §1

A short description of data set [2]: Pharmacokinetics / brain exposure in mice. Format: in vivo, C57Bl/6J mice. The method, then: Pharmacokinetics studies were conducted in C57Bl/6J mice. The compound was formulated in a generic formulation at 1 mg/mL (e.g. 10:40:4:46, DMSO:PEG 400: tween 80: PBS, v:v:v:v) or other specified formulations and dosed at 1 mg/kg intravenous into the femoral vein or 1-10 mg/kg by oral gavage, or […]. Blood was obtained at t=5 min, 15 min, 30 min, 1 hr, 2 hr, 4 hr, 6 hr, and 8 hr. Blood was collected by heart puncture into EDTA containing tubes and plasma was generated by standard centrifugation methods. Brains were collected following perfusion with ice-cold saline, and snap frozen in liquid N2. Both plasma and brains were stored at −80° C. until processing. All procedures and handling were according to standard operating procedures approved by […] at Scripps Florida and/or Ohio State University. In order to assess in vivo pharmacokinetic parameters an LC-MS/MS bioanalytical method was developed where 25 TI of plasma was treated with 125 TI of acetonitrile containing an internal standard in a Millipore Multscreen Slovinter 0.45 micron low binding PTFE hydrophilic filter plate (#MSRLN0450) and allowed to shake at room temperature for five minute. The plate was then centrifuged for 5 minutes at 4000 rpm in a tabletop centrifuge and the filtrate was collected in a polypropylene capture plate. The filtrate (10 TI) is injected using an Agilent 1200 HPLC equipped with a Thermo Betasil C18 HPLC column 5 T (50×2.1 mm) #70105-052130. Mobile Phase A was water with 0.1% formic acid. Mobile phase B was acetonitrile with 0.1% formic acid. […] An API Sciex 4000 equipped with a turbo ion spray source was used for all analytical measurement. MRM methods were developed in position ion mode. Peak areas of the analyte ion were measured against the peak areas of the internal standard. Data was fit using WinNonLin using an IV bolus model.

The target in data set [3] is T1, panel of 374 wild-type kinases (Homo sapiens, UniProt Q86SG6).
T1 construct: purchased Reaction Biology Corporation
The experiment in a line: biochemical. The following applies: read-out: % Enzyme Activity (relative to DMSO controls), NEK8; 5 uM.

In data set [4] the target is T2, panel of 374 wild-type kinases (Homo sapiens, UniProt Q9H792).
T2 construct: purchased Reaction Biology Corporation
The experiment in a line: biochemical. As to conditions: read-out: % Enzyme Activity (relative to DMSO controls), kinase PEAK1; 5 uM.

The next data set deals with p38α (Homo sapiens, UniProt Q16539). The experiment in a line: p38 enzyme inhibition assay. As to conditions: mean of ≥2 experiments; read-out: Biochemical inhibition IC50 p38α.
The next data set concerns the target JNK2 (Homo sapiens, UniProt P45984). The experiment in a line: JNK2 homogeneous time-resolved fluorescence enzyme inhibition assay. Format: biochemical. The following applies: mean of ≥2 experiments; read-out: Biochemical inhibition IC50 JNK2. The method, then: as §1
Data set [5] has as its target T3, panel of 374 wild-type kinases (Homo sapiens, UniProt P53779).
T3 construct: purchased Reaction Biology Corporation
The experiment in a line: biochemical. As to conditions: read-out: % Enzyme Activity (relative to DMSO controls), JNK3; 10 uM.

T1 sequence (Q86SG6 whole entry): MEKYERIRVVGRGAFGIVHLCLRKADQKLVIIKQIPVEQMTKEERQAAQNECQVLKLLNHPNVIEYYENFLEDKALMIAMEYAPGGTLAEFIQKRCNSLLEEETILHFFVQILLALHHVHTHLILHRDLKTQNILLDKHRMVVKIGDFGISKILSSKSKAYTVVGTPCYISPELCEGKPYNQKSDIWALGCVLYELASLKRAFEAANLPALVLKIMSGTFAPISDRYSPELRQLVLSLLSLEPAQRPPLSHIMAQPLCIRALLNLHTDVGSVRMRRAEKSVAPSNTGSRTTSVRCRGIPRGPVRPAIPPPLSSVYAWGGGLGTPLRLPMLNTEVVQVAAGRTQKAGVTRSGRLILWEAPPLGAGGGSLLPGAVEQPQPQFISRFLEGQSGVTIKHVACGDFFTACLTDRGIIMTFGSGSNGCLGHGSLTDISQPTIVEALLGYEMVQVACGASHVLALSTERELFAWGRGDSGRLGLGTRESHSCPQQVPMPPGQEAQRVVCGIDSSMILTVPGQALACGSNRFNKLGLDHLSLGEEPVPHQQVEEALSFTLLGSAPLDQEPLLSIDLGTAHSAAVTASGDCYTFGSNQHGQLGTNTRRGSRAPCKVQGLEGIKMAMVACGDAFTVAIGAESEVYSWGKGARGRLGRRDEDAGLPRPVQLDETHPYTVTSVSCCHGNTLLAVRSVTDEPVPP
T3 sequence (P53779 whole entry): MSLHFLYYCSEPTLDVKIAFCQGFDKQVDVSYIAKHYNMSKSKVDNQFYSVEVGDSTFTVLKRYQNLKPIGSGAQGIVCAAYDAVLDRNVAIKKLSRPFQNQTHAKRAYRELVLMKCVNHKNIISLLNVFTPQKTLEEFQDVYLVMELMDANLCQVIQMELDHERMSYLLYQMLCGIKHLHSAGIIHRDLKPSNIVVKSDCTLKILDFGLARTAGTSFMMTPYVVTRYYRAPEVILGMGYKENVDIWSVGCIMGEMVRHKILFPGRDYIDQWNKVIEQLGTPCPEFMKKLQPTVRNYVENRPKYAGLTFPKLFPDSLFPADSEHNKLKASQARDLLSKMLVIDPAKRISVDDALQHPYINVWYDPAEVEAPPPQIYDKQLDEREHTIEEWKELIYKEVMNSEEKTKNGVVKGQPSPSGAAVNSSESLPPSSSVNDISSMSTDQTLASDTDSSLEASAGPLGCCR
Chain of JNK2 (P45984 whole entry): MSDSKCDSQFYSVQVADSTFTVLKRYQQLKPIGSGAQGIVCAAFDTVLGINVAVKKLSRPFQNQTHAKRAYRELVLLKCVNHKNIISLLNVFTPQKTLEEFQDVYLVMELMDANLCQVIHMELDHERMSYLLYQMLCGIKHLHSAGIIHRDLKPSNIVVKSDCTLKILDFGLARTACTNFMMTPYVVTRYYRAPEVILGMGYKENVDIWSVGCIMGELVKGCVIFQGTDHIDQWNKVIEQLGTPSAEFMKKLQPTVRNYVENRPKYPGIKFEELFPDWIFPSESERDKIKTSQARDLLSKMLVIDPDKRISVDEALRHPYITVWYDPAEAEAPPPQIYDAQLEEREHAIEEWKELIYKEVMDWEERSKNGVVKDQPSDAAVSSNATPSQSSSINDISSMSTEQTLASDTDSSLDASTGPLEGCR
Chain of JNK1 (P45983 whole entry): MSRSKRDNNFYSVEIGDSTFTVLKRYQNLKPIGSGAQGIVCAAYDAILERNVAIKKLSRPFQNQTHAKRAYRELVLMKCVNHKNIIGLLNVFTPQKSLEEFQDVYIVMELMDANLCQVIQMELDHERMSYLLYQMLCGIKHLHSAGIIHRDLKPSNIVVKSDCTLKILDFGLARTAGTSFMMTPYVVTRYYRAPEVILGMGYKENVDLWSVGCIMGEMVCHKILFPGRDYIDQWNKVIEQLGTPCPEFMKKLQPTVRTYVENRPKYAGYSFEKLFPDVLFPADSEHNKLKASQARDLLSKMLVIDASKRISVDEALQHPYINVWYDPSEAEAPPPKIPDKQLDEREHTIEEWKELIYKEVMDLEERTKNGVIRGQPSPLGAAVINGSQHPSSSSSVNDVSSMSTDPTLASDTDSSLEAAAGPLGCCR
Chain of p38α (Q16539 whole entry): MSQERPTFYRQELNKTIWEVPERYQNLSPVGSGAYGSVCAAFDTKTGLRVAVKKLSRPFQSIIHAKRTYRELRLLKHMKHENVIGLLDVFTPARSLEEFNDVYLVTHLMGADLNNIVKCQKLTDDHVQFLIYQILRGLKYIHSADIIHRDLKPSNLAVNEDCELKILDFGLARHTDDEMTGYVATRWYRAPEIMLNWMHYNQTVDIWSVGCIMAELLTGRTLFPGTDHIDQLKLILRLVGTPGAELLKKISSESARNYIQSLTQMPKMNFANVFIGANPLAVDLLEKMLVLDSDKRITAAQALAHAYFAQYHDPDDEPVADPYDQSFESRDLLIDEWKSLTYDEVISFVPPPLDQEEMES
Chain of JNK3α1 (P53779 1-422 isoform P53779-2): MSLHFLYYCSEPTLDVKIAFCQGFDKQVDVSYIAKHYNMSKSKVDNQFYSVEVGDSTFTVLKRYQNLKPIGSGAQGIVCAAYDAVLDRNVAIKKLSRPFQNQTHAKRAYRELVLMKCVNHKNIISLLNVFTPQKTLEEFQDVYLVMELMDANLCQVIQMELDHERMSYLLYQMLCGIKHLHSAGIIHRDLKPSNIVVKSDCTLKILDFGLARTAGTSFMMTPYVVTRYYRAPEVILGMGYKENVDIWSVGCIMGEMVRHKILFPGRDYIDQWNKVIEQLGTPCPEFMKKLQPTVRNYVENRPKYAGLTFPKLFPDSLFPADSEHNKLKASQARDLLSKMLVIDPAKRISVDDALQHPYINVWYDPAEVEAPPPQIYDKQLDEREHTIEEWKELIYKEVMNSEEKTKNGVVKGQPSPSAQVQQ
T2 sequence (Q9H792 whole entry): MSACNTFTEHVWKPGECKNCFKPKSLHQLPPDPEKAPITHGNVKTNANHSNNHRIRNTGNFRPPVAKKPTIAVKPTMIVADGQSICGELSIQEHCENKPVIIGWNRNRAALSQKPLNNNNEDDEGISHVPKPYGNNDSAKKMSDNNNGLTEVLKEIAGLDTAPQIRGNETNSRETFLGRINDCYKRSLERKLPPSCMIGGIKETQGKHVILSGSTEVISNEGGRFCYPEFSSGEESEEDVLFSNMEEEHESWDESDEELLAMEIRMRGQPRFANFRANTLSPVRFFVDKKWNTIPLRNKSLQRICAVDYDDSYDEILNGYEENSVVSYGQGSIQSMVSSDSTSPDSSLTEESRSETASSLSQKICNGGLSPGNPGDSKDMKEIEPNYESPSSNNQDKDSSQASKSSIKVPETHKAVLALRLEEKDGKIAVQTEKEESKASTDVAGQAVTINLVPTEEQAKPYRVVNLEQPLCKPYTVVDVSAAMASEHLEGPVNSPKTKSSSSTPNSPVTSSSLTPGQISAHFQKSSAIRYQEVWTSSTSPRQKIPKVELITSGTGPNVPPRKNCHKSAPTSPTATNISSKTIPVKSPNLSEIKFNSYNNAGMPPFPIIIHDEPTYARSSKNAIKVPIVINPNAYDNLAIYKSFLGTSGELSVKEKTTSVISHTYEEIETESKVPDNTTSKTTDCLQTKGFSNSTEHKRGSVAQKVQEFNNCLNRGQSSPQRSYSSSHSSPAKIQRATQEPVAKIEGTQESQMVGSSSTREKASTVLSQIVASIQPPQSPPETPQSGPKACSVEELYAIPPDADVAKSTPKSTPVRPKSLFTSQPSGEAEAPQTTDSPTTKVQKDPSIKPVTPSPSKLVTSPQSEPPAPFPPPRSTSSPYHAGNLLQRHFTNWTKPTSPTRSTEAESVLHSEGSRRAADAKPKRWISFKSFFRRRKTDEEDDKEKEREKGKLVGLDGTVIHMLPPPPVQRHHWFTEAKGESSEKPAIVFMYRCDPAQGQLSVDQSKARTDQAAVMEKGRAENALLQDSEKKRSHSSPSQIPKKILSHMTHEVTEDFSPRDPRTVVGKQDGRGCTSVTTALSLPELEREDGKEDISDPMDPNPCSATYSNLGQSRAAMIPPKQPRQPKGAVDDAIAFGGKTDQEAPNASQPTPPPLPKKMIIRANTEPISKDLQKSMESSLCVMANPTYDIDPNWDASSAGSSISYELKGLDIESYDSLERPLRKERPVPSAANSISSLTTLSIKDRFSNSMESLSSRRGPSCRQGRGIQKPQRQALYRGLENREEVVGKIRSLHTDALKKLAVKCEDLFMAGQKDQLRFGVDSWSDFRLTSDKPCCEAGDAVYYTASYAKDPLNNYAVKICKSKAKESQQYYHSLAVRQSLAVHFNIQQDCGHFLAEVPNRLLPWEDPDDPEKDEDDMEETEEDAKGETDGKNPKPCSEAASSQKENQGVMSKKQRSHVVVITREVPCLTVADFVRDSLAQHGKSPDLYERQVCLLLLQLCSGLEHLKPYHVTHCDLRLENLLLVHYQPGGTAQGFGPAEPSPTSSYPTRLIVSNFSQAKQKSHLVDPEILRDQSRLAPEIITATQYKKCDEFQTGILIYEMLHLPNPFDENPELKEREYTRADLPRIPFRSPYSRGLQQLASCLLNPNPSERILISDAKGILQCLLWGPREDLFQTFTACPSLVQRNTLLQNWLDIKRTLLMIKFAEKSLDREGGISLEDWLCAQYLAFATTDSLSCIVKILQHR

With `O=C(Nc1cnn(-c2csc(C(=O)NC3COC3)c2)c1)Nc1ccccc1Cl` [Compound 17, 4-(4-(3-(2-chlorophenyl)ureido)-1H-pyrazol-1-yl)-N-(oxetan-3-yl)thiophene-2-carboxamide], the “inhibition of phosphorylation of residue T668 of APP” value in data set [1] is “significantly inhibited”. In addition, the IC50 at JNK3α1 was 0.035 µM; on JNK1 it was 5.9 µM; on p38α, above 20 µM; on JNK2 it was 1.36 µM. For the same compound, the brain penetration capability result in data set [2] (po dosing) is recorded as “brain penetrant”. Besides, in data set [2] (po dosing), the oral bioavailability entry is “has oral bioavailability”. Moreover, in data set [2] (po, 10 mg/kg), the “Brain Concentration” value stood at 1080 nM. The “Plasma Concentration” value in [2] (po, 10 mg/kg) came out at 960 nM. In addition, the remaining activity at 5 µM in data set [3] worked out at 107%; in data set [4], 91.4%.
In the case of `Cc1sc(C(=O)NC2COC2)cc1-n1cc(NC(=O)Nc2c(F)cccc2Cl)cn1` [Compound 27, 4-(4-(3-(2-chloro-6-fluorophenyl)ureido)-1H-pyrazol-1-yl)-5-methyl-N-(oxetan-3-yl)thiophene-2-carboxamide], the remaining activity at 10 µM in data set [5] is 10.5%.
